The values below come from patent publication US20230287316A1, “INTER-ORGAN PLATFORM WITH TISSUE-SPECIFIC NICHES FOR A MICROPHYSIOLOGICAL SYSTEM ON A CHIP” (THE TRUSTEES OF COLUMBIA UNIVERSITY IN THE CITY OF NEW YORK, priority 2020, published 2023).

Data set [1] has as its system tumors engineered from non-metastatic OS cells. The data set can be described thus: Linsitinib in bioengineered tumors from non-metastatic OS cells. The class given is cell-based, human. The settings on record: 12 µM, for 3 weeks. As for the experimental part:
(§1) We tested the drug Linsitinib—a potent tyrosine kinase inhibitor targeting the IGF-1 receptor (IGF-1R) —in metastatic and non-metastatic OS models (FIG. 17C). The drug was administered (12 µM, for 3 weeks), as per an ongoing Phase II Eurosarc trial in patients with advanced Ewing sarcoma.

Data set [2] deals with tumors from metastatic cells. Description: Linsitinib in bioengineered tumors from metastatic OS cells. The settings on record: 12 µM, for 3 weeks. The class given is cell-based, human. As for the experimental part: as §1
The test system of a further data set is ES cell monolayers. Description: Linsitinib dose response in ES cell monolayers (MTT and luminescence viability). The settings on record: 0-100 µM over 72 hours. The class given is cell-based, human. As for the experimental part: (§2) MTT viability assay was used to determine drug toxicity, with luminescence generated by viable cells measured at the endpoint (10^4 cells per well, mean± s.e.m., n = 3). […] In order to determine cancer cell viability, cells were lysed and treated with luciferin using a Bright-Glo™ assay, with subsequent luminescence measured (10^4 cells per well, mean± s.e.m., n = 3).
(§3) Cell viability was analyzed using a previously established protocol.^59 Cancer cell viability was measured for GFP-Luciferase labelled cancer cells using ONE-Glo luciferase substrate that was prepared according to manufacturer’s protocol (Promega). Samples were collected following 3, 7, and 21 days cycles of linsitinib treatment. Where noted, longitudinal cell viability was also assessed using luminescence, though at the cost of signal strength. Briefly, in vivo grade VivoGlo™ Luciferin (Promega) was made at a 200x stock concentration (30 mg/ml) in water, added to sample culture media at a 1:200 dilution, and scanned using a spectrophotometer (Biotek). Some of the IC50 values were determined using cell viability data generated using an MTT assay (RealTime-Glo™ MT Cell Viability Assay, Promega) that were analyzed according to manufacturer’s protocol.

The test system of data set [3] is metastatic SK-N-MC cell line. The data set can be described thus: Linsitinib 12 µM on metastatic ES cell monolayers, luminescence viability. Format: cell-based, human. The settings on record: 12 µM over 72 hours. As for the experimental part:
as §2
Both culture media were supplemented with 10% FBS and 1 % penicillin/streptomycin.
as §3

In the next data set the target is T1, phosphorylated IGF-1R (Homo sapiens, UniProt P08069).
T1 construct: both RD-ES and SK-N-MC monolayers were treated with 12 µM linsitinib for 6 hours, lysed; endogenous in cells; host or cells: RD-ES (ATCC HTB-166) and SK-N-MC (ATCC HTB-10) Ewing sarcoma cell lines
Description: Human Phospho-IGF1R ELISA in ES cell monolayers. The class given is cell-based. The settings on record: 12 µM for 6 hours, non-metastatic and metastatic ES cell lines.

Data set [4] relates to metastatic TE-ES (SK-N-MC) bone tumor. The data set can be described thus: Linsitinib on metastatic engineered ES bone tumors (TE-ES) cultured in isolation. Format: cell-based, human. Particulars: 12 µM. As for the experimental part: FIGS. 32A-D show aspects of responses of human engineered bone ES tumors and cardiac tissues to linsitinib in isolated platform chambers. […] Luminescence as a function of cancer cell number and viability was measured (mean± s.e.m., n = 6 for day 3, and n = 3 for day 7 and 21).
Supernatants were collected from each individual sample across the duration of the drug treatments and were analyzed for osteoblast function (OCN, OPN) and for cytotoxicity (LDH) (mean± s.e.m., n = 3).
Two weeks following the initiation of osteogenic differentiation, aggregates of ES tumor cells were prepared as described previously, using 0.3 × 10^6 cells per aggregate. After 1 week of culture, corresponding to the end of bone tissue culture (3 weeks), the primary ES cell aggregates were placed into the engineered bone constructs (3 aggregates per construct, placed apart of each other). Tumor models were established for two different types of primary ES cells: non-metastatic (RD-ES) and metastatic (SK-N-MC). Tissue engineered RD-ES and SK-N-MC tumors were cultured in the RPMI and EMEM media, respectively, supplemented with 10% FBS and 1% penicillin/streptomycin. Bone constructs cultured without tumor cell aggregates (TE-bone) in RPMI and EMEM media were used as controls.
as §3
Osteocalcin (OCN), osteopontin (OPN), and lactic acid dehydrogenase (LDH) secreted levels were all measured using a similar approach. Supernatants were isolated from controls and drug treated TE-ES and equal amounts were used in each assay according to the manufacturer’s instructions. For OCN a Human Osteocalcin Quantikine^R ELISA (R&D Systems) was used, while for OPN it was a Human Osteopontin Quantikine^R ELISA (R&D Systems). LDH secretion was determined using a Lactate Dehydrogenase Assay Kit (Colorimetric; Abcam).

In the next data set the test system is cardiac tissues. The data set can be described thus: Linsitinib on cardiac tissue in the integrated platform with microfluidic perfusion. The class given is cell-based, human. The protocol:
The TE-ES and cardiac tissues were then cultured in the integrated platform with perfusion of mixed media. Linsitinib was introduced into the reservoir and delivered to tissues via circulation of perfusate and diffusion into the tissues.
FIGS. 35A-E show aspects of responses of human engineered bone ES tumors and cardiac tissues to linsitinib in the integrated platform with microfluidic perfusion. FIGS. 35A and 35B show the responses when non-metastatic ES bone tumors and cardiac tissues were exposed to linsitinib (12 µM) over a period of 72 hours in either isolated culture or within the perfused integrated platform. Luminescence (FIG. 35A) and LDH secretion (FIG. 35B) as functions of cancer cell number and viability as well as cytotoxicity, respectively, were measured (mean± s.e.m., n = 3).
To measure the cardiac contractility online, we took contractility videos of the tissues that were analyzed using the native MATLAB code we previously developed. Tissue contractility was measured by tracking the change in tissue area as a function of time. Acquired video frames were inverted and an automated intensity threshold was used to identify cell location in the video frame. First, a baseline time point in the video corresponding to a relaxed tissue state was selected. Absolute differences in cell area from the baseline frame were then calculated to create a time course of cell area changes over time. The resulting time courses were analyzed using a native MATLAB (MATHWorks) automated peak finding algorithm to determine locations of maximum cell contractions in the time profiles. Beat period lengths were determined from the length of time between the pairs of local maxima, and the beat frequencies were determined by inverting beat periods. The rate of proarrhythmic events was calculated by the ratio of the number of proarrhythmic events over the total number of beats.

For data set [5] the following is noted: cited from earlier work.
[6] abbreviates: clinical trials of other types of cancer.

T1 sequence (P08069 31-1367): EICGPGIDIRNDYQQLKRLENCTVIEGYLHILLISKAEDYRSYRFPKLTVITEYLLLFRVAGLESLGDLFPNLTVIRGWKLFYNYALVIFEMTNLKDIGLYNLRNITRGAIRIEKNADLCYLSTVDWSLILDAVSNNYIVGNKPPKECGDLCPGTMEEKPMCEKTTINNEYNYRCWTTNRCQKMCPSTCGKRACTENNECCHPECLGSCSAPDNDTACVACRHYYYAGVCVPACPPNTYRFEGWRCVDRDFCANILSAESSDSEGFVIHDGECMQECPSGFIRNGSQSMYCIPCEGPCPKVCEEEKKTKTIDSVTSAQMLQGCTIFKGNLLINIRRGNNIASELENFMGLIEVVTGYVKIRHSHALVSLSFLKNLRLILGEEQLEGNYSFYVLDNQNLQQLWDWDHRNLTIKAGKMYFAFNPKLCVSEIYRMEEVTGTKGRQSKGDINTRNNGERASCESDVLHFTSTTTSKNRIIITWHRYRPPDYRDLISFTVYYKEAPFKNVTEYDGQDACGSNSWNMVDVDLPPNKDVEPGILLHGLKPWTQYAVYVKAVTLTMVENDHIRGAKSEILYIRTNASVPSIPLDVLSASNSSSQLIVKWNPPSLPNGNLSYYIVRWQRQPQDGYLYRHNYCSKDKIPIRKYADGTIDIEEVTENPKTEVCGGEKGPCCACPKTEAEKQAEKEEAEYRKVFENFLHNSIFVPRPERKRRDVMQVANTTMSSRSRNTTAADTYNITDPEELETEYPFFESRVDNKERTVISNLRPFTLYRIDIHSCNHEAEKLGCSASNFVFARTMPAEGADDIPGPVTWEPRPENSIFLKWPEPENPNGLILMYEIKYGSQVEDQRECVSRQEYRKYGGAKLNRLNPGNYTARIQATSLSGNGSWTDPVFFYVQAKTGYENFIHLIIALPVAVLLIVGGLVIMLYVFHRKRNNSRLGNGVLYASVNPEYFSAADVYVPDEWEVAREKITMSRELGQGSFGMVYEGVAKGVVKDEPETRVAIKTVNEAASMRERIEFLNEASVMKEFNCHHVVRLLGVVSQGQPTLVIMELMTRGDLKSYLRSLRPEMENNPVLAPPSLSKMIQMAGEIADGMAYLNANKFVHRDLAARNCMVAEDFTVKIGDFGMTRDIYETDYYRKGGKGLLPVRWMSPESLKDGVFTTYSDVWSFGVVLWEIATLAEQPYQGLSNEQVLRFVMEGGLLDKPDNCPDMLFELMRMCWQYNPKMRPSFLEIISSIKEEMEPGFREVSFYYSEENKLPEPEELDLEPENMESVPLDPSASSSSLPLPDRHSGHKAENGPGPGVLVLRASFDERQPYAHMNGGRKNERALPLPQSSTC

Regarding `C[C@]1(O)C[C@@H](c2nc(-c3ccc4ccc(-c5ccccc5)nc4c3)c3c(N)nccn32)C1` [linsitinib], in data set [1], the tumor viability result is “significant viability reduction”. Also, in data set [2], the tumor viability entry was “no effect”. Further, the “IC50 (MTT viability assay)” value in the data set on ES cell monolayers is recorded as “two orders of magnitude lower than the effective plasma concentration observed in patients”. Also, the IC50 in the data set with ES cell monolayers (Homo sapiens, GFP-luciferase cells, read-out: IC50 (luminescence as a proxy for cell viability)) is ~12 µM. In data set [3], the “drug efficacy (luminescence viability)” value is listed as “significant drug efficacy”. Further, the “levels of phosphorylated IGF-1R” value on phosphorylated IGF-1R was “significant decreases”. Also, in data set [4] (3-week regimen, supernatants), the “LDH secretion (cytotoxicity)” value was “spiked” and the Osteocalcin secretion result is given as “decreased”. Moreover, the “cancer cell population (luminescence)” value in data set [4] (21-day clinical treatment regimen) was “decrease in drug efficacy, as the cancer cell population continued to expand over the 21-day treatment cycle”. Moreover, in data set [4] (after 3 days), the “drug response (luminescence)” value was “significant drug response”. Besides, the osteopontin secretion result in data set [4] (throughout the 21 days) was “decreased similar to osteocalcin”. For the same compound, the “rate of proarrhythmic events” value with cardiac tissues (12 µM, integrated model) is given as “approximately 11%”. For the same compound, the beat frequency result in the data set on cardiac tissues (12 µM, integrated platform) is recorded as “did not observe linsitinib-mediated changes in beat frequency”. Besides, the “response to subsequent isoproterenol exposure” value in the data set on cardiac tissues (after 12 µM linsitinib, integrated platform) is listed as “expected inotropic response”. For the same compound, the overall cardiotoxicity entry with cardiac tissues (integrated platform) is recorded as “mild cardiotoxicity”. The “progression of ES in the clinical trial” value in data set [5] (Phase II trial, patients with refractory or relapsed ES) was “unable to stop progression of ES”. Besides, the Cmax in data set [5] (blood plasma, patients, read-out: Cmax clinical concentration) is 12 µM. Also, in data set [5] (setting [6]), the atrial fibrillation is given as 3.75 - 5% and the tachycardia was 3.75-5 % of patients. The half-life result in data set [5] (known value) was “approximately 5 hours”.
